One series concerns MRSA (NCTC 12493). The class given is cell-based. To be noted: NCTC 12493. As for the experimental part:
(§1) A measure of 5 × 10^5 CFU/mL of bacterial suspension including 2-fold dilution peptides (ranging from 1 µM to 512 µM) was incubated in 96-well plates for 16–20 h at 37 °C. For the positive and negative control, 200 mg/L of final concentration of norfloxacin and 1% DMSO were applied, respectively. […] Subsequently, 10 µL of the solution in each clear well was dropped on a Mueller–Hinton agar (MHA) plate and incubated at 37 °C for 16–20 h. The lowest concentration without colony growth was considered as the MBCs.
(§2) Mueller–Hinton broth (MHB) at pH 6.0 and 8.0 as well as MHB containing 10% of Fetal Bovine Serum (FBS), 150 mM of NaCl, 1 mM of MgCl2 and 4 µM of FeCl3, respectively, were prepared. In particular, the pathogens were diluted by the preprepared mediums to a final concentration of 5 × 10^5 CFU/mL after growing to the logarithmic phase, and other operations followed the MIC assay.

The subject of series [1] is P. aeruginosa (ATCC 27853). The class given is cell-based. To be noted: ATCC 27853. How it is done:
as §1, §2

The test system of a further series is E. coli (ATCC 8739). Format: cell-based. To be noted: ATCC 8739. As for the experimental part:
as §1, §2

Series [2] concerns S. aureus (ATCC CRM 6538). The class given is cell-based. To be noted: ATCC CRM 6538. How it is done:
as §1, §2

Series [3] relates to K. pneumoniae (ATCC 43816). Format: cell-based. To be noted: ATCC 43816. How it is done:
as §1, §2

In the next series the test system is E. faecalis (NCTC 12697). Format: cell-based. To be noted: NCTC 12697. How it is done:
as §1, §2

For series [4], the system named is erythrocytes from defibrinated horse blood. The experiment in a line: Haemolysis assay. To be noted: horse erythrocytes; compared with the preceding peptide of the design series.
From the text: The erythrocytes from defibrinated horse blood (TCS Biosciences Ltd., Buckingham, UK) were used to perform the haemolysis assay, as described previously [27]. Equal volumes of PBS and 2% (v/v) of the non-ionic detergent, Triton X-100 (Sigma–Aldrich, St. Louis, MO, USA) in PBS solution, were used as negative and positive controls, respectively. HC50 was defined as the mean peptide concentration producing 50% haemolysis.

Ends that are not written are not given here.

By MBC is commonly meant the lowest tested concentration that kills the bacteria rather than only halting them. The low end stands for more potent killing, the high end for less potent killing. One may read the MIC as the lowest concentration that inhibits growth of the organism. The low end stands for a more susceptible organism, the high end for a less susceptible organism. FVDLKKIANII-NH2 [Peptide T1CEa-t]: the minimal bactericidal concentration (MBC) (against MRSA (NCTC 12493); in series [1]; against E. coli (ATCC 8739); in series [2]; in series [3]; against E. faecalis (NCTC 12697)) was greater than 512 µM throughout. Moreover, the MIC (in the series with MRSA (NCTC 12493); in series [1]; against E. coli (ATCC 8739); in series [2]; in series [3]; in the series with E. faecalis (NCTC 12697)) was greater than 512 µM throughout. Also, the “haemolytic activity (in words)” value in series [4] is listed as “completely lost”.

Turning to FVDLKKIANIL-NH2 [Peptide T1CEh-t], the MBC (with MRSA (NCTC 12493); in series [1]; against E. coli (ATCC 8739); in series [2]; in series [3]; in the series on E. faecalis (NCTC 12697)) was greater than 512 µM each time. Further, the MIC (in the series with MRSA (NCTC 12493); in series [1]; against E. coli (ATCC 8739); in series [2]; in series [3]; in the series with E. faecalis (NCTC 12697)) was greater than 512 µM each time. In addition, in series [4], the “haemolytic activity (in words)” value was “completely lost”.

In the case of KKFVDLKKIANIL-NH2 [Peptide T1CEh-KK], the minimal bactericidal concentration (MBC) with MRSA (NCTC 12493) is greater than 512 µM; in series [1], 256 µM; against E. coli (ATCC 8739), 16 µM; in series [2] it was greater than 512 µM; in series [3], 128 µM; with E. faecalis (NCTC 12697) it was greater than 512 µM. The MIC against MRSA (NCTC 12493) is greater than 512 µM; in series [1], 256 µM; in the series with E. coli (ATCC 8739), 8 µM; in series [2], 256 µM; in series [3], 128 µM; in the series with E. faecalis (NCTC 12697) it was 64 µM. In series [4], the “haemolytic activity (in words)” value was “maintained the low level of haemolysis”.

In the case of KKFVPLKKIANIL-NH2 [Peptide T1CEh-KKP], the minimum bactericidal concentration (MBC) in the series with MRSA (NCTC 12493) is 256 µM; in series [1], greater than 512 µM; against E. coli (ATCC 8739), 128 µM; in series [2] it was 64 µM; in series [3] it was greater than 512 µM; against E. faecalis (NCTC 12697) it was greater than 512 µM. Besides, the MIC against MRSA (NCTC 12493) was 256 µM; in series [1], 512 µM; against E. coli (ATCC 8739) it was 128 µM; in series [2], 32 µM; in series [3] it was greater than 512 µM; with E. faecalis (NCTC 12697), greater than 512 µM.

The record behind these values is article PMC8949600, “In Vitro & In Vivo Studies on Identifying and Designing Temporin-1CEh from the Skin Secretion of Rana chensinensis as the Optimised Antibacterial Prototype Drug” (Pharmaceutics, 2022).
